Measured values as given in PubChem BioAssay AID749 (The Scripps Research Institute Molecular Screening Center, 2007).
Activity calls are given as the source filed them.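 How the source made its calls: active means IC50 at or below 10 micromolar; inactive means IC50 above 10 micromolar.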

Biological target: 5-hydroxytryptamine receptor 1E (Homo sapiens) (UniProt P28566)
Assay: blockade of human 5HT1E serotonin receptor – cell-based, dose response (AID 749)
Conditions: CHO 5-HT1E Ga15 NFAT-BLA reporter, FRET

5-hydroxytryptamine receptor 1E (Homo sapiens), sequence (P28566 whole entry, looked up): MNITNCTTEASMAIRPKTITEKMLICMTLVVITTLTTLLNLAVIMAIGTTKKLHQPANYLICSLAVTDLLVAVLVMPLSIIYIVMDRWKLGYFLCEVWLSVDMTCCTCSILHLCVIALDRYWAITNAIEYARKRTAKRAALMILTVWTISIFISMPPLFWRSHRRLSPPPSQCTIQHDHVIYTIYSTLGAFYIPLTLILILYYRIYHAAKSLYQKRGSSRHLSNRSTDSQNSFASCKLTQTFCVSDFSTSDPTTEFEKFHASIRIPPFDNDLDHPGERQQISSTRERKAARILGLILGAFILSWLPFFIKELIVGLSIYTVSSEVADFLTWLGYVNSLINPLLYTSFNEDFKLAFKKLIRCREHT

CS(=O)(=O)c1nc(-c2ccco2)cc(C(F)(F)F)n1
IC50: 2.26 µM

COC(=O)/C(=C1/Oc2cc(C)oc(=O)c2S1)C(F)(F)F
IC50: 1.86 µM

COC(=O)Nc1nc2ccc(Sc3ccccc3)cc2[nH]1
IC50: > 50 µM (inactive)

COc1cc2c(cc1OC)C1=C(C#N)CC/C(=N\S(=O)(=O)c3ccccc3)N1CC2
IC50: > 50 µM (inactive)

COc1ccc(-n2nnnc2S(=O)(=O)CC(=O)N2CCCCC2)cc1
IC50: 2.61 µM

COc1cc(NS(=O)(=O)c2ccc(C)cc2)c2ncccc2c1
IC50: 3.75 µM

CCCOc1ccc2nc(NC(=O)OC)[nH]c2c1
IC50: > 50 µM (inactive)

O=C(Nc1ccc(-c2nc3ncccc3o2)cc1)c1ccc(Br)o1
IC50: > 50 µM (inactive)

CC(=O)Nc1cc(OC(C)=O)c2nonc2c1OC(C)=O
IC50: 2.1 µM

N#C/C(=C/c1ccc(N2CCCCCC2)o1)c1ccc(F)cc1
IC50: 5.2 µM

CCCOCCOC(=O)c1[nH]c2c(c1C)C(=O)CC(c1cc(OC)ccc1OC)C2 (configuration not stated)
IC50: > 50 µM (inactive)

COc1cc2c(cc1OC)-c1cc(N3CCCc4ccccc43)nc(=O)n1CC2
IC50: > 50 µM (inactive)

N#CCCS(=O)(=O)c1nnnn1-c1ccccc1
IC50: 2.79 µM

Cc1ccc(-n2nc3c([n+]2[O-])CCc2c-3no[n+]2[O-])cc1
IC50: 3.9 µM

CC(C)=CCC(C)(C)CNC(=O)NC1CCCCC1
IC50: > 50 µM (inactive)

COc1cccc(N2CCN(c3ncnc4c3[nH]c3ccccc34)CC2C)c1 (configuration not stated)
IC50: 8.24 µM

CCOc1cccc(-c2nnc3n2N=C(c2cc(OC)ccc2OC)CS3)c1
IC50: > 32.7 µM (inactive)

CS(=O)(=O)c1nc(-c2ccccc2)cc(C(F)(F)F)n1
IC50: 2.13 µM

COc1cccc(N2CCN(c3ncnc4c3cnn4-c3ccc(C)cc3C)CC2)c1
IC50: 6.99 µM

COc1ccc(C2N(c3ccc(F)cc3)C(=O)C3CCCN32)cc1 (configuration not stated)
IC50: > 38.2 µM (inactive)

CSc1ccccc1N=CC1=C(O)CC(C)(C)CC1=O
IC50: 2.35 µM

Cn1c(-c2c(N)n(C3CCCC3)c3nc4ccccc4nc23)nc2ccccc21
IC50: 3.64 µM

COc1cccc(N2CCN(c3ncnc4c3[nH]c3ccc(F)cc34)CC2C)c1 (configuration not stated)
IC50: 1.82 µM

COCCOC(=O)c1[nH]c2c(c1C)C(=O)CC(c1ccccc1)C2 (configuration not stated)
IC50: > 50 µM (inactive)

Clc1ccc(-n2nnnc2Sc2ncnc3sccc23)cc1
IC50: 3.5 µM

CCn1nc(-c2ccccc2)nc2c(=O)n(C)c(=O)nc1-2
IC50: > 50 µM (inactive)

O=S1(=O)C=C(Sc2nnc(-c3ccccc3)o2)c2ccccc21
IC50: 1.04 µM

O=C(Nc1ccc(N2CCOCC2)cc1)Nc1ccc2nc(-c3ccco3)c(-c3ccco3)nc2c1
IC50: > 17.2 µM (inactive)

O=C1C2C3C=CC(CO)(O3)C2C(=O)N1c1ccc(-c2ccccc2)cc1 (configuration not stated)
IC50: 4.91 µM

CCn1c(=O)c(C(=O)Nc2nc3ccccc3[nH]2)c(O)c2ccccc21
IC50: inactive

CCC(NC(=O)Nc1nnc(C(F)(F)F)s1)(C(F)(F)F)C(F)(F)F
IC50: inactive

CCOc1ccc(C2=Nn3c(nnc3-c3ccccc3OC)SC2)cc1
IC50: > 50 µM (inactive)

COc1ccc(N2C(=O)CC(NCc3ccncc3)C2=O)cc1 (configuration not stated)
IC50: > 50 µM (inactive)

CS(=O)(=O)c1nc(-c2cccs2)cc(C(F)(F)F)n1
IC50: 1.93 µM

CCCc1nnc2n1N=C(c1ccc(OC)c(OC)c1)CS2
IC50: > 50 µM (inactive)

CN(C)c1nc(OCCNC(=O)COc2ccc(Cl)cc2Cl)nc(N2CCCCC2)n1
IC50: > 50 µM (inactive)

COc1ccccc1-c1nnc2n1N=C(c1ccc(O)c(O)c1)CS2
IC50: > 50 µM (inactive)

COc1ccc(-c2cc(C(F)(F)F)nc(S(C)(=O)=O)n2)cc1OC
IC50: 2.91 µM

CC(=O)Oc1ccc(N2C(=O)C3C(C2=O)C2(C)C=CC3(C)O2)cc1 (configuration not stated)
IC50: 2.62 µM

Cc1ccc(S(=O)(=O)Nc2cccc3ncccc23)s1
IC50: 2.91 µM

CCn1nc(-c2cccs2)nc2c(=O)n(C)c(=O)nc1-2
IC50: 0.629 µM

CCN(CC)c1ccc2c(Cl)c(Br)c(=O)oc2c1
IC50: 0.999 µM
